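Tested at 5 concentrations; 48 h exposure; 96-well plates; endpoints linearly interpolated, else capped at highest concentration. GI50 is the concentration that inhibits growth by half.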 Activity calls are given as the source filed them. No stated cut-off is given here; in the data, active = GI50 up to about 1.1 µM and inactive = higher.
Experiments:
Test in all cases: DTP human tumour cell line panel, 48 h
[1] = system: HOP-62
[2] = system: NCI-H522
[3] = system: SR
[4] = system: NCI/ADR-RES
[5] = system: MDA-N
[6] = system: MCF7
[7] = system: DLD-1
[8] = system: CAKI-1
[9] = system: SN12C
[10] = system: DMS-273
[11] = system: DMS-114
[12] = system: NCI-H23
[13] = system: SNB-78
[14] = system: KM-20L2
[15] = system: SNB-75
[16] = system: SK-OV-3
[17] = system: HOP-92
[18] = system: SK-MEL-2
[19] = system: SF-539
[20] = system: BT-549

Measured: GI50

CC(C)(C)OC(=O)NCCc1ccc(N)cc1
inactive: [1] > 100 µM | [2] > 100 µM | [3] 55.6 µM | [4] 32.4 µM | [5] > 100 µM | [6] > 100 µM

O=C(O)C(Cl)(Cl)Cl
inactive: [7] > 100 µM | [8] > 100 µM | [9] > 100 µM | [10] > 100 µM | [3] > 100 µM | [11] > 100 µM | [12] > 100 µM | [13] > 100 µM | [14] > 100 µM | [15] 63.1 µM | [16] > 100 µM | [17] > 100 µM | [18] > 100 µM | [19] > 100 µM

CC(C)(C)OC(=O)C1=C(C(=O)OC(C)(C)C)SC2(S1)C(C(=O)OC(C)(C)C)=C(C(=O)OC(C)(C)C)Sc1c2ssc1=O
inactive: [8] 83.8 µM | [20] 67 µM | [9] 38.3 µM | [1] 64.9 µM | [2] 49.3 µM | [12] 95.1 µM | [4] > 100 µM | [5] 45.2 µM | [16] > 100 µM | [6] 49.2 µM | [17] > 100 µM | [18] 72.9 µM

— ChEMBL document CHEMBL1201862, “PubChem BioAssay data set” (2004)
